Reference: patent US8044100B2, “Methods and compositions for treating amyloid-related diseases” (Bellus Health Inc., priority 2004, dated 2011)

Assays:
[1] = system: Aβ peptides (Aβ40, Aβ42) in the plasma and brain of TgCRND8 mice; experiment: Long term treatment (8 or 16 weeks) in TgCRND8 mice: Aβ levels in plasma and brain; format: in vivo, mouse; settings: for Brain Abeta40 insoluble / Brain Abeta40 soluble / Brain Abeta42 insoluble / Brain Abeta42 soluble / Plasma Abeta40 / Plasma Abeta42: BX subcutaneous, BW and BZ oral
Method: The long-term therapeutic effects of compounds of the present invention on cerebral amyloid deposition and β-amyloid (Aβ) levels in the plasma and in the brains of transgenic mice, TgCRND8, expressing the human amyloid precursor protein (hAPP) was studied. These compounds were administered over an 8 or 16 week period at the end of which the levels of Aβ peptides in the plasma and brain of TgCRND8 animals were determined. The goal of this study was to evaluate the efficacy of the compounds at modulating the progression of the amyloidogenic process in the brain and in the plasma of a transgenic mouse model of Alzheimer's disease (AD)
The mice used in the study consisted of animals bearing one copy of the hAPP gene (+/−) from the 2nd and 3rd generation progenies (N2 and N3) derived from backcrosses from TgCRND8.FVB(N2)AJ(N3) with B6AF1/J hybrid animals. • N1=TgCRND8.FVB(N2)AJ(N3)×B6AF1/J • N2=TgCRND8.FVB(N2)AJ(N3).B6AF1/J(N1)×B6AF1/J • N3=TgCRND8.FVB(N2)AJ(N3).B6AF1/J(N2)×B6AF1/J
The following abbreviations are used to designate these animals in the present study: TgCRND8.B6AF1/J(N2); TgCRND8.B6AF1/J(N3). Male and female transgenic mice were given daily subcutaneous (compound BX) or oral (compounds BW and BZ) administrations of the appropriate compounds for 8 or 16 weeks.
Baseline animals consisted of 9±1 week old naive TgCRND8.B6AF1/J animals from the 2nd and 3rd generations. These mice were used to determine the extent of cerebral amyloid deposits and Aβ levels in the plasma and brain of naive transgenic animals at the initiation of treatment.
Starting at 9 weeks of age (+1 week) animals received daily administration of their respective treatment for a period of 8 or 16 weeks, at a dose of 30 or 100 mg/kg at 10 ml/kg. The route of administration was subcutaneous for water-soluble compounds (Compound BX) and oral for compounds solubilized in methylcellulose 1% (MC 1%) (Compounds BW and BZ). At the end of the treatment periods, plasma and perfused brains were collected for quantification of Aβ levels.
Animal health was monitored, samples were collected and Aβ levels were measured as described above in the short term treatment study. Compounds were scored based on their ability to modulate levels of Aβ peptides in the plasma and the cerebral soluble/insoluble levels in the brain. Levels of Aβ observed in the plasma and brain of treated animals were compared to that of vehicle-treated (water) or methylcellulose-treated control groups and ranked according to the strength of the pharmacological effect. Increases in the levels of Aβ peptides are indicated using “+” symbols, while decreases in the levels of Aβ peptides are indicated using “−” symbols. The strongest effects are recorded as “+++” or “−−−” while the weakest are shown as “+” or “−”.
Specifically, increases in the levels of Aβ (relative to vehicle treated control) of 5 to 14% are scored as “+”; increases of 15 to 29% are scored as “++”; and increases of 30% or higher are scored as “+++”. Decreases in the levels of Aβ of 5 to 14% are scored as “−”; decreases of 15 to 29% are scored as “−−”; and decreases of 30% or more are scored as “−−−”. Additionally, changes of 4% or less in either direction are scored as “0”.

[2] = system: amyloid plaques in the brains of TgCRND8 mice; experiment: ThioS histology of brain sections of TgCRND8 mice: number of plaques and area occupied; format: in vivo, mouse; settings: for Change in Plaque Area / Change in Plaque Number: 16 wks, ThioS
Method: For the ThioS studies, the plaques in the brains of the mice were quantified as follows. Mice were transcardially perfused with saline solution. Brains were dissected out and separated in 2 hemispheres. The left hemisphere was immersed in freshly-prepared 4% paraformaldehyde for 3 hrs at 4° C., then transfered into 30% sucrose at 4° C. When cryoprotection was achieved (24-48 hours), brains were frozen in isopentane at −45° C. and subsequently stored at −80° C. until sectioning. Coronal 40 μm-thick sections were performed, and stained with thioflavin S (1% solution in water) for 8 min. After differentiation of the thioflavin S staining, sections were counterstained with hematoxylin for 5 minutes. Two sets of pictures were captured simultaneously. A first set of pictures was captured under brightfield illumination to obtain morphological details of the section; a second set of pictures was captured under a green, specific, fluorescent filter (fluorescein filter, Ex 495 nm, Em 525 nm). Image analysis to quantify the number of plaques and the area occupied by these plaques was performed using Image Pro Plus software (Media Cybernetics, MD, USA).
Increases in the areas and numbers of plaques are indicated using “+” symbols, while decreases in the areas and numbers of the plaques are indicated using “−” symbols.
Specifically, increases in the areas and numbers of plaques (relative to vehicle treated control) of 10 to 19.99% are scored as “+”. Decreases in the areas and numbers of plaques of 10 to 19.99% are scored as “−”. Additionally, changes of 9.99% or less in either direction are scored as “0”.

[3] = 30 mg/kg, ThioS staining of brain sections, preliminary

| SMILES | Brain Abeta40 insoluble ([1]; 30 mg/kg daily, 8 wks) | Brain Abeta40 soluble ([1]; 30 mg/kg daily, 8 wks) | Brain Abeta42 insoluble ([1]; 30 mg/kg daily, 8 wks) | Brain Abeta42 soluble ([1]; 30 mg/kg daily, 8 wks) | Plasma Abeta40 ([1]; 30 mg/kg daily, 8 wks) | Plasma Abeta42 ([1]; 30 mg/kg daily, 8 wks) | Brain Abeta40 insoluble ([1]; 30 mg/kg daily, 16 wks) | Brain Abeta40 soluble ([1]; 30 mg/kg daily, 16 wks) | Brain Abeta42 insoluble ([1]; 30 mg/kg daily, 16 wks) | Brain Abeta42 soluble ([1]; 30 mg/kg daily, 16 wks) | Plasma Abeta40 ([1]; 30 mg/kg daily, 16 wks) | Plasma Abeta42 ([1]; 30 mg/kg daily, 16 wks) | Brain Abeta40 insoluble ([1]; 100 mg/kg daily, 8 wks) | Brain Abeta40 soluble ([1]; 100 mg/kg daily, 8 wks) | Brain Abeta42 insoluble ([1]; 100 mg/kg daily, 8 wks) | Brain Abeta42 soluble ([1]; 100 mg/kg daily, 8 wks) | Plasma Abeta40 ([1]; 100 mg/kg daily, 8 wks) | Plasma Abeta42 ([1]; 100 mg/kg daily, 8 wks) | Brain Abeta40 insoluble ([1]; 100 mg/kg daily, 16 wks) | Brain Abeta40 soluble ([1]; 100 mg/kg daily, 16 wks) | also measured |
| --- | --- | --- | --- | --- | --- | --- | --- | --- | --- | --- | --- | --- | --- | --- | --- | --- | --- | --- | --- | --- | --- |
| O=S(=O)(O)CCCNC12CC3CC(CC(C3)C1)C2 [BW] | −− (decreases of 15 to 29%) | − (Decreases in the levels of Aβ of 5 to 14%) | 0 (changes of 4% or less in either direction) | −− (decreases of 15 to 29%) | −−− (decreases of 30% or more) | −−− (decreases of 30% or more) | ++ (increases of 15 to 29%) | + (increases in the levels of Aβ (relative to vehicle treated control) of 5 to 14%) | + (increases in the levels of Aβ (relative to vehicle treated control) of 5 to 14%) | − (Decreases in the levels of Aβ of 5 to 14%) | −− (decreases of 15 to 29%) | −− (decreases of 15 to 29%) | −−− (decreases of 30% or more) | −− (decreases of 15 to 29%) | −−− (decreases of 30% or more) | −− (decreases of 15 to 29%) | − (Decreases in the levels of Aβ of 5 to 14%) | − (Decreases in the levels of Aβ of 5 to 14%) | + (increases in the levels of Aβ (relative to vehicle treated control) of 5 to 14%) | ++ (increases of 15 to 29%) | Brain Abeta42 insoluble ([1]; 100 mg/kg daily, 16 wks): ++ (increases of 15 to 29%); Brain Abeta42 soluble ([1]; 100 mg/kg daily, 16 wks): + (increases in the levels of Aβ (relative to vehicle treated control) of 5 to 14%); Plasma Abeta40 ([1]; 100 mg/kg daily, 16 wks): − (Decreases in the levels of Aβ of 5 to 14%); Plasma Abeta42 ([1]; 100 mg/kg daily, 16 wks): − (Decreases in the levels of Aβ of 5 to 14%); brain and plasma levels of Aβ ([1]; at 8 weeks): dramatic decrease; plasma levels of Aβ ([1]; at 16 weeks): dramatic decrease; Change in Plaque Area ([2]; 30 mg/kg): 0 (changes of 9.99% or less in either direction); Change in Plaque Number ([2]; 30 mg/kg): 0 (changes of 9.99% or less in either direction); Change in Plaque Area ([2]; 100 mg/kg): 0 (changes of 9.99% or less in either direction); Change in Plaque Number ([2]; 100 mg/kg): − (Decreases in the areas and numbers of plaques of 10 to 19.99%) |
| CC(C)(C)NCCCS(=O)(=O)O [BX, 3-(t-butyl)amino-1-propanesulfonic acid] | −−− (decreases of 30% or more) | −−− (decreases of 30% or more) | −− (decreases of 15 to 29%) | −−− (decreases of 30% or more) | + (increases in the levels of Aβ (relative to vehicle treated control) of 5 to 14%) | + (increases in the levels of Aβ (relative to vehicle treated control) of 5 to 14%) | −−− (decreases of 30% or more) | −− (decreases of 15 to 29%) | − (Decreases in the levels of Aβ of 5 to 14%) | 0 (changes of 4% or less in either direction) | − (Decreases in the levels of Aβ of 5 to 14%) | − (Decreases in the levels of Aβ of 5 to 14%) | ++ (increases of 15 to 29%) | + (increases in the levels of Aβ (relative to vehicle treated control) of 5 to 14%) | 0 (changes of 4% or less in either direction) | + (increases in the levels of Aβ (relative to vehicle treated control) of 5 to 14%) | ++ (increases of 15 to 29%) | +++ (increases of 30% or higher) | −−− (decreases of 30% or more) | − (Decreases in the levels of Aβ of 5 to 14%) | Brain Abeta42 insoluble ([1]; 100 mg/kg daily, 16 wks): −− (decreases of 15 to 29%); Brain Abeta42 soluble ([1]; 100 mg/kg daily, 16 wks): 0 (changes of 4% or less in either direction); Plasma Abeta40 ([1]; 100 mg/kg daily, 16 wks): − (Decreases in the levels of Aβ of 5 to 14%); Plasma Abeta42 ([1]; 100 mg/kg daily, 16 wks): 0 (changes of 4% or less in either direction); amount of Aβ in the brain ([1]; at both 8 and 16 weeks): dramatic decrease; Change in Plaque Area ([2]; 30 mg/kg): − (Decreases in the areas and numbers of plaques of 10 to 19.99%); Change in Plaque Number ([2]; 30 mg/kg): − (Decreases in the areas and numbers of plaques of 10 to 19.99%); area occupied by the plaques [2, 3]: decreased; number of plaques [2, 3]: decreased; Change in Plaque Area ([2]; 100 mg/kg): + (increases in the areas and numbers of plaques (relative to vehicle treated control) of 10 to 19.99%); Change in Plaque Number ([2]; 100 mg/kg): 0 (changes of 9.99% or less in either direction) |
